Experimental data reported in patent US12162888B2, “Carboxamides as ubiquitin-specific protease inhibitors” (Valo Early Discovery, Inc., priority 2018, dated 2024).

The compounds below were run against T1, USP28 (His-tagged USP28-FL-mammalian) (Homo sapiens, UniProt Q96RU2) (assay: Ubiquitin-Rhodamine 110 Assay for USP28 Activity, Example A-1(a)). Conditions: Ubiquitin-Rhodamine 110 assay, read-out: USP28 A-1(a) IC50 range.
T1 construct: Expression of USP28 (1-1077)-TEV-6*His (pTT5 vector) was carried out in Expi293f cells; made in house; host or cells: Expi293F cells (pTT5 vector)
T1 sequence (Q96RU2 1-1077): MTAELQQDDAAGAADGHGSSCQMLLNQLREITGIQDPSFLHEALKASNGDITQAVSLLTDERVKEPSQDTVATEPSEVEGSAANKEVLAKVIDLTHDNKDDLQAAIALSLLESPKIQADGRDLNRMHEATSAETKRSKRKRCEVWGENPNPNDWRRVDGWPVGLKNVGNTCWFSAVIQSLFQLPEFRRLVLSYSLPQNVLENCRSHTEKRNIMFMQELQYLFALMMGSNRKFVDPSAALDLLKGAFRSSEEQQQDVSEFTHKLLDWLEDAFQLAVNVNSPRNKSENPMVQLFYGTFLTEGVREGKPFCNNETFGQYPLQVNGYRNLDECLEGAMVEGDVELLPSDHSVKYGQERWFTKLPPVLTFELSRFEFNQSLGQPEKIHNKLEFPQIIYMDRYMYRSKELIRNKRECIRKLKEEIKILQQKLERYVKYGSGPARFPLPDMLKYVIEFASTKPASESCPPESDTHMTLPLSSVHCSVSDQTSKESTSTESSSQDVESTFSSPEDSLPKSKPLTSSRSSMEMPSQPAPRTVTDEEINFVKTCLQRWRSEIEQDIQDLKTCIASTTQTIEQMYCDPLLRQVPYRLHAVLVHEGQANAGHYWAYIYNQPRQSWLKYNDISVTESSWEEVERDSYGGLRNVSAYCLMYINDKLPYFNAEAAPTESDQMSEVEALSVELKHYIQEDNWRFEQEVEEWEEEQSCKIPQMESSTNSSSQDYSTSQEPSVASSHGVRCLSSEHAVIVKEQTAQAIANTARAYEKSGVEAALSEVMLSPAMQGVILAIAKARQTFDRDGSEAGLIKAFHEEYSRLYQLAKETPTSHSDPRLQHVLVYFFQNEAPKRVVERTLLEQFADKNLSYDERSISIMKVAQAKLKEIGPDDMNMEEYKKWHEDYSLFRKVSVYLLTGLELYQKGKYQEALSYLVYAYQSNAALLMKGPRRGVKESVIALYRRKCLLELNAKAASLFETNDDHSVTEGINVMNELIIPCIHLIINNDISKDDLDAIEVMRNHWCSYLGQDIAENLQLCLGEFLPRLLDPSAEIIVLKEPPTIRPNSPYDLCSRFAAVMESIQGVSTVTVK
Format: biochemical
Outline: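 IC50s were fitted with a 4-parameter logistic to percent inhibition relative to no-enzyme and DMSO controls, using Rhodamine 110 fluorescence (485/535 nm) released from 25 nM Ub-Rh110. The enzyme was Expi293F-expressed USP28-FL-His at […], preincubated 30 min with compound (10-point, 25 μM top) in Tris pH 8.0 buffer containing BGG and Triton X-100. Substrate turnover ran 45 min at room temperature and was stopped with 10 mM citric acid.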

SMILES | IC50 [nM]
Cc1cnc2c(N)c(C(=O)N[C@H]3CCc4c(C#N)c(N5CC6CCC(C5)N6)cc(F)c4C3)sc2n1 (single isomer, unassigned) [Example 14-19] | 1 to 50
Cc1ccc2c(N)c(C(=O)N[C@H]3CCc4c(C#N)c(N5CC6CCC(C5)N6)cc(F)c4C3)sc2n1 (single isomer, unassigned) [Example 14-17] | 1 to 50
CN[C@@H]1CCN(c2ccc3c(c2)CC[C@@H](NC(=O)c2sc4nc(C)cnc4c2N)C3)C1 (single isomer, unassigned) [Example 11-28] | 200 to 2000
CO[C@H]1CN(c2cc(F)c3c(c2C#N)CC[C@@H](NC(=O)c2sc4nc(C)ccc4c2N)C3)C[C@@H]1N (single isomer, unassigned) [Example 14-24] | 200 to 2000
Cc1ccc2c(N)c(C(=O)N[C@H]3COc4cc(N5CCNCC5)ccc4[C@@H]3C)sc2n1 (single isomer, unassigned) [Example 11-16] | > 2000
Cc1nc2sc(C(=O)N[C@H]3CCc4c(C#N)c(N5CCNCC5)cc(F)c4C3)c(N)c2s1 (single isomer, unassigned) [Example 14-14] | 1 to 50
Cc1cnc2c(N)c(C(=O)N[C@H]3CCc4cc(N5C[C@@H]6C[C@H]5CN6)ccc4C3)sc2n1 (single isomer, unassigned) [Example 11-29] | 50 to 200
Cc1cnc2c(N)c(C(=O)N[C@@H]3CCc4cc(N5CCNCC5)ccc4C3)sc2n1 (single isomer, unassigned) [Example 11-20] | 200 to 2000
Cc1cnc2c(N)c(C(=O)N[C@H]3CCc4cc(N5CCNCC5)c(F)cc4C3)sc2n1 (single isomer, unassigned) [Example 21-12] | 1 to 50
Cc1cnc2c(N)c(C(=O)N[C@@H]3CCc4cc(N5C[C@@H]6C[C@H]5CN6)ccc4C3)sc2n1 (single isomer, unassigned) [Example 11-30] | 200 to 2000
Cc1cnc2c(N)c(C(=O)N[C@@H]3CCc4cc(N5CCNCC5)cc(F)c4C3)sc2n1 (single isomer, unassigned) [Example 11-37] | 200 to 2000
Cc1nc2sc(C(=O)N[C@@H]3CCc4c(C#N)c(N5CCNCC5)cc(F)c4C3)c(N)c2s1 (single isomer, unassigned) [Example 14-13] | 200 to 2000
Cc1ccc2c(N)c(C(=O)N[C@H]3CCc4c(F)c(N5CC6CCC(C5)N6)cc(F)c4C3)sc2n1 (single isomer, unassigned) [Example 22-5] | 1 to 50
Cc1ccc2c(N)c(C(=O)N[C@H]3CCc4cc(N5CCNCC5)ccc4C3)sc2n1 (single isomer, unassigned) [Example 11-21] | 200 to 2000
Cc1ccc2c(N)c(C(=O)N[C@@H]3CCc4c(C#N)c(N5CCNCC5)cc(F)c4C3)sc2n1 (single isomer, unassigned) [Example 14-9] | 200 to 2000

Same assay, conditions: biochemical IC50 range, Ubiquitin-Rhodamine 110 assay, read-out: USP28 A-1(a)

SMILES | IC50 [nM]
CO[C@@H]1CN(c2ccc3c(c2)OC[C@H](NC(=O)c2sc4nc(C)cnc4c2N)C3)C[C@@H]1N [Example 147, 7-amino-N-[(3R)-7-[(3S,4R)-3-amino-4-methoxypyrrolidin-1-yl]-3,4-dihydro-2H-1-benzopyran-3-yl]-3-methylthieno[2,3-b]pyrazine-6-carboxamide] | 50 to 200
Cc1ccc2c(N)c(C(=O)N[C@H]3CCc4cc(N5C[C@H](CF)[C@H](N)C5)ccc4C3)sc2n1 [Example 657, 3-amino-N-[(2S)-6-[(3S,4S)-3-amino-4-(fluoromethyl)pyrrolidin-1-yl]-1,2,3,4-tetrahydronaphthalen-2-yl]-6-methylthieno[2,3-b]pyridine-2-carboxamide] | 50 to 200
O=C(N[C@H]1COc2cc(N3CCNCC3)ccc2C1)c1ccc(NCc2ccc(Cl)cc2Cl)nc1 [Example 697, 6-{[(2,4-dichlorophenyl)methyl]amino}-N-[(3R)-7-(piperazin-1-yl)-3,4-dihydro-2H-1-benzopyran-3-yl]pyridine-3-carboxamide] | 1 to 50
